Source: ChEMBL document CHEMBL3638961, “Oxazine derivatives” (2015)

Target: Beta-secretase 1 (Homo sapiens, UniProt P56817)
Assay: Inhitbition Assay: 48.5 µL of substrate peptide solution (Biotin-XSEVNLDAEFRHDSGC-Eu: X=ε-amino-n-capronic acid, Eu=Europium cryptate) was added to each well of 96-hole half-area plate (a black plate: Costar), and after addition of 0.5 µl of the test compound (dissolved in N,N'-dimethyl formaldehyde) and 1 µl of Recombinant human BACE1(R&D Systems), the reaction mixture was incubated at 30° C. for 3 hours. The substrate peptide was synthesized by reacting Cryptate TBPCOOH mono SMP (CIS bio international) with Biotin-XSEVNLDAEFRHDSGC (Peptide Institute, Inc.). The final concentrations of the substrate peptide and Recombinant human BACE1 were adjusted to 18 nmol/L and 7.4 nmol/L, respectively, and the reaction was performed in sodium acetate buffer (50 mmol/L sodium acetate, pH 5.0, 0.008% Triton X-100).After the incubation for reaction, 50 µl of 8.0 µg/ml Streptavidin-XL665 (CIS bio international) dissolved in phosphate buffer.

Beta-secretase 1, sequence (P56817 whole entry): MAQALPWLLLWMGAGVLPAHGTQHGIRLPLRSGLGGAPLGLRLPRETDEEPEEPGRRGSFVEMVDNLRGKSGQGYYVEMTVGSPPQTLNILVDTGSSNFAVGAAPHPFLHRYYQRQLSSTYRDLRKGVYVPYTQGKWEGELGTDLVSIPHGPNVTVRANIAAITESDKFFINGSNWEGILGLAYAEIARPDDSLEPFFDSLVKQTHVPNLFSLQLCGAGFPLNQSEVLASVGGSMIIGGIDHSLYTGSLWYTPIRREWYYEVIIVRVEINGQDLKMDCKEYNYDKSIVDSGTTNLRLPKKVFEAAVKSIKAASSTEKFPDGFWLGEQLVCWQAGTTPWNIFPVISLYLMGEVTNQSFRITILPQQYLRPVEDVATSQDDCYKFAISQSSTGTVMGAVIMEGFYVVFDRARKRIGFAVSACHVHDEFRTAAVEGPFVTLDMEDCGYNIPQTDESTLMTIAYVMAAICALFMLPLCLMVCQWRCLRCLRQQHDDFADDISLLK

CC1=C[C@@](C)(c2cc(NC(=O)c3ccc(Cl)cn3)ccc2F)N=C(N)O1
IC50: < 30 µM

C[C@@]1(c2cc(NC(=O)c3ccc(C#N)cn3)ccc2Cl)CCOC(N)=N1
IC50: < 30 µM

C[C@@]1(c2cc(NC(=O)c3ncc(F)cc3F)ccc2F)CCOC(N)=N1
IC50: < 30 µM

CC1=C[C@@](C)(c2cc(NC(=O)c3ncc(F)cc3F)ccc2F)N=C(N)O1
IC50: < 30 µM

CC1=C[C@@](C)(c2cc(NC(=O)c3ccc(C(F)(F)F)cn3)ccc2F)N=C(N)O1
IC50: < 30 µM

COc1cnc(C(=O)Nc2ccc(F)c([C@]3(C)C=C(C)OC(N)=N3)c2)cn1
IC50: < 30 µM

CC1=C[C@@](C)(c2cc(NC(=O)c3ncc(C#N)cc3F)ccc2F)N=C(N)O1
IC50: < 30 µM
